Data published in patent publication US7045528B2, “Benzofused heterozryl amide derivatives of thienopyridines useful as therapeutic agents, pharmaceutical compositions including the same, and methods for their use” (Agouron Pharmaceuticals, Inc., priority 2002, dated 2006).
pIC50, pKi: −log10 of the molar value. Like-named read-outs stand apart in the source and are kept apart here.

What was measured:
FGF-R1 = target: T1, FGF-R1 (Homo sapiens, UniProt P11362, C488A/C584S/L457V); assay: FGF-R spectrophotometric assay; assay type: biochemical; settings: percent inhibition at 100 nM; library amides from Example 101 (R101), crude mixtures in DMSO
T1 construct: starting from the endogenous methionine residue 456 to glutamate 766; made in house; host or cells: baculovirus vector expression system
Description: FGF-R1 Construct for Assay:
The intracellular kinase domain of human FGF-R1 was expressed using the baculovirus vector expression system starting from the endogenous methionine residue 456 to glutamate 766, according to the residue numbering system of Mohammadi et al., Mol. Cell. Bio., 16, 977–989 (1996). In addition, the construct also has the following 3 amino acid substitutions: L457V, C488A, and C584S.
The spectrophotometric assay was carried out as described above for VEGF-R2, except for the following changes in concentration: FGF-R=50 nM, ATP=2 mM, and poly(E4Y1)=15 mM.

[1] = target: T2, unphosphorylated VEGF-R2Δ50 (FLVK) (Homo sapiens, UniProt P35968, DEL940-989/E990V); assay: VEGF-R2 coupled spectrophotometric assay, unphosphorylated VEGF-R2Δ50 (FLVK); assay type: biochemical; settings: for inhibition at 0.1 µM: read-out: FLVK (% @ 100 nM); for inhibition at 0.05 µM: 50 nM compound, read-out: FLVK (% inh @ 50 nM); for inhibition at 0.05 µM / pKi: unphosphorylated VEGF-R2Δ50
T2 construct: VEGF-R2Δ50 contains residues 806–939 and 990–1171; made in house; host or cells: baculovirus/insect cell system
Method in brief: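 Ki obtained by Morrison-equation fitting of activity at varied compound levels; reaction started with 5–40 nM enzyme. Non-autophosphorylated kinase construct (insect cell-expressed) with 3 mM ATP, 20 mM poly(E4Y1), 60 mM MgCl2 plus 2 mM MnCl2, pH 7.5 HEPES; NADH loss at 340 nm via PK/LDH coupling.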

PDGFRβ = target: T3, PDGFRβ (Homo sapiens, UniProt P09619); assay: PAE-PDGFRβ phosphorylation in PAE-PDGFRB cells assay; assay type: cell-based; settings: for pIC50: library amides from Example 101 (R101), crude mixtures in DMSO, read-out: PAE PDGFR autophos IC50; for IC50: PAE cells overexpressing human PDGFRβ, PDGF-BB stimulated, read-out: PAE PDGFR autophos IC50 (nM) AVG
T3 construct: expressed in transfected cells; host or cells: porcine aorta endothelial (PAE)-PDGFRβ cells
Method in brief: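 Inhibition of PDGF-BB-induced (1 μg/mL, 8 min, with 2 mM vanadate) PDGFRβ autophosphorylation in porcine aortic endothelial cells expressing the human receptor. Cells were starved 16 h and pretreated with compound 1 h at 37 °C. Lysates were captured with anti-PDGFRβ and probed with HRP-PY20 at 450 nm; four-parameter IC50.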

[2] = test system: human umbilical vein endothelial cells (HUVEC); assay: HUVEC+VEGF proliferation assay; assay type: cell-based; settings: Homo sapiens, HUVEC; VEGF 6 ng/mL, 72 h, MTT
Method in brief: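 Exponentially growing passage 3–4 HUVEC were starved 24 h in F12K + 1% FBS, given compound (0.1% final DMSO) 1 h before 6 ng/mL final VEGF, then cultured 72 h. Proliferation was read as MTT dye reduction (4 h exposure), absorbance at 595 nm.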

Huvec = assay: bFGF Huvec proliferation; assay type: cell-based, human; settings: Homo sapiens, HUVEC
KDR (VEGFR2) = target: T4, KDR (VEGFR2) (Homo sapiens, UniProt P35968); assay: KDR (VEGFR2) phosphorylation in PAE-KDR cells assay; assay type: cell-based; settings: PAE cells overexpressing human KDR, VEGF stimulated; read-out: PAE KDR autophos IC50 (nM) AVG
T4 construct: expressed in transfected cells; host or cells: porcine aorta endothelial (PAE)-KDR cells
Description: KDR (VEGFR2) Phosphorylation in PAE-KDR Cells Assay
This assay determines the ability of a test compound to inhibit the autophosphorylation of KDR in porcine aorta endothelial (PAE)-KDR cells. PAE cells that overexpress human KDR were used in this assay. The cells were cultured in Ham's F12 media supplemented with 10% fetal bovine serum (FBS) and 400 ug/mL G418. Thirty thousands cells were seeded into each well of a 96-well plate in 75 μL of growth media and allowed to attach for 6 hours at 37° C. Cells were then exposed to the starvation media (Ham's F12 media supplemented with 0.1% FBS) for 16 hours. After the starvation period was over, 10 μL of test agent in 5% DMSO in starvation media were added to the test wells and 10 μL of the vehicle (5% DMSO in starvation media) were added into the control wells. The final DMSO concentration in each well was 0.5%. Plates were incubated at 37° C. for 1 hour and the cells were then stimulated with 500 ng/ml VEGF (commercially available from R & D System) in the presence of 2 mM Na3VO4 for 8 minutes. The cells were washed once with 1 mm Na3VO4 in HBSS and lysed by adding 50 μL per well of lysis buffer. One hundred μL of dilution buffer were then added to each well and the diluted cell lysate was transferred to a 96-well goat ant-rabbit coated plate (commercially available from Pierce) which was pre-coated with Rabbit anti Human Anti-flk-1 C-20 antibody (commercially available from Santa Cruz). The plates were incubated at room temperature for 2 hours and washed seven times with 1% Tween 20 in PBS. HRP-PY20 (commercially available from Santa Cruz) was diluted and added to the plate for a 30-minute incubation. Plates were then washed again and TMB peroxidase substrate (commercially available from Kirkegaard & Perry) was added for a 10-minute incubation. One hundred μL of 0.09 N H2SO4 was added to each well of the 96-well plates to stop the reaction. Phosphorylation status was assessed by spectrophotometer reading at 450 nm. IC50 values were calculated by curve fitting using a four-parameter analysis.

[3] = percent inhibition at 100 nM, library amides from Example 101 (R101), crude mixtures in DMSO

T1 sequence (P11362 456-766 L457V/C488A/C584S): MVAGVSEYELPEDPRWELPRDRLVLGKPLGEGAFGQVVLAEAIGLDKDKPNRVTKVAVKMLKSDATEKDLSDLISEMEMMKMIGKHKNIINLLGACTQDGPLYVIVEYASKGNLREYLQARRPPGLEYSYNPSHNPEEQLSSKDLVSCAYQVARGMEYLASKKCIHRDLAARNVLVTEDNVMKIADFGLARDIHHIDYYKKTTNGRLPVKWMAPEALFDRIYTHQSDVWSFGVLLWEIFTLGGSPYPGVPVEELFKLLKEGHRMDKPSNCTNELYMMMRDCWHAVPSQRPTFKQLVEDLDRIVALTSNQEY
T3 sequence (P09619 33-1106): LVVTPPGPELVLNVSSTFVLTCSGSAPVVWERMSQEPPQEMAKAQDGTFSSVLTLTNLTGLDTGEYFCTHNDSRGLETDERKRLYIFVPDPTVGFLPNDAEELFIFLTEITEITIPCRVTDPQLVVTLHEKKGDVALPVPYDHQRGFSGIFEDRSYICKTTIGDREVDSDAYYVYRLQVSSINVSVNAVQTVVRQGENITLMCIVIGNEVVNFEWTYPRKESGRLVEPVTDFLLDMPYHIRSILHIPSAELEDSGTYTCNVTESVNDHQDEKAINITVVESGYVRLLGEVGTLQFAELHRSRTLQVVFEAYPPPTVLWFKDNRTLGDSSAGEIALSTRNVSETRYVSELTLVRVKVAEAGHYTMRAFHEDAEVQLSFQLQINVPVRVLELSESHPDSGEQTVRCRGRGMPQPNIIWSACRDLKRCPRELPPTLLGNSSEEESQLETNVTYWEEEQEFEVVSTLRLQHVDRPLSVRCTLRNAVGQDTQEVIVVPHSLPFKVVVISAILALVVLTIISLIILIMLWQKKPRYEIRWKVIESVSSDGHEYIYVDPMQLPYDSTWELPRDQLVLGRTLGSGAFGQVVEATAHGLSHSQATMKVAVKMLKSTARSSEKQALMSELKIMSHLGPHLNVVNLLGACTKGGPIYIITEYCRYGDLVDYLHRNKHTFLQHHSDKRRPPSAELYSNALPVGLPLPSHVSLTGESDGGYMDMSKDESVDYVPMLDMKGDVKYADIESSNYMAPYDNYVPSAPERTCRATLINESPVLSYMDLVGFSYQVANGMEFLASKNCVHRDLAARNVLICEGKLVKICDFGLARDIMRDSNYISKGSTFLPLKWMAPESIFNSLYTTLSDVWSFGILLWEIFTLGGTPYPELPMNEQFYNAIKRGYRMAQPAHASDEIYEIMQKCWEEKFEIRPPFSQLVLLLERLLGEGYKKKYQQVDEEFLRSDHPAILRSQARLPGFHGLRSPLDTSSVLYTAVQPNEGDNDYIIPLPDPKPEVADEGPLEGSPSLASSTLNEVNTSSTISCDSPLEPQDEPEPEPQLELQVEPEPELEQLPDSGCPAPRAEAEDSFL
T2 sequence (P35968 with tags, fused parts or gaps DEL940-989/E990V limits assumed): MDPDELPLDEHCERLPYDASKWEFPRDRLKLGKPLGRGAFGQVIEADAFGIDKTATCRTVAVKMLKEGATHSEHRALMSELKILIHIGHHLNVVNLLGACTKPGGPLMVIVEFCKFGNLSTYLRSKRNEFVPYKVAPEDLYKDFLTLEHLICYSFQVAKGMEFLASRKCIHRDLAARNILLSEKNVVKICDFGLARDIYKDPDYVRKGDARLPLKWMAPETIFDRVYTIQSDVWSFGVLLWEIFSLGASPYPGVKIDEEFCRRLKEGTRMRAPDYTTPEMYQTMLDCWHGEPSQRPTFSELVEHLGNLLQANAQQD
T4 sequence (P35968 20-1356): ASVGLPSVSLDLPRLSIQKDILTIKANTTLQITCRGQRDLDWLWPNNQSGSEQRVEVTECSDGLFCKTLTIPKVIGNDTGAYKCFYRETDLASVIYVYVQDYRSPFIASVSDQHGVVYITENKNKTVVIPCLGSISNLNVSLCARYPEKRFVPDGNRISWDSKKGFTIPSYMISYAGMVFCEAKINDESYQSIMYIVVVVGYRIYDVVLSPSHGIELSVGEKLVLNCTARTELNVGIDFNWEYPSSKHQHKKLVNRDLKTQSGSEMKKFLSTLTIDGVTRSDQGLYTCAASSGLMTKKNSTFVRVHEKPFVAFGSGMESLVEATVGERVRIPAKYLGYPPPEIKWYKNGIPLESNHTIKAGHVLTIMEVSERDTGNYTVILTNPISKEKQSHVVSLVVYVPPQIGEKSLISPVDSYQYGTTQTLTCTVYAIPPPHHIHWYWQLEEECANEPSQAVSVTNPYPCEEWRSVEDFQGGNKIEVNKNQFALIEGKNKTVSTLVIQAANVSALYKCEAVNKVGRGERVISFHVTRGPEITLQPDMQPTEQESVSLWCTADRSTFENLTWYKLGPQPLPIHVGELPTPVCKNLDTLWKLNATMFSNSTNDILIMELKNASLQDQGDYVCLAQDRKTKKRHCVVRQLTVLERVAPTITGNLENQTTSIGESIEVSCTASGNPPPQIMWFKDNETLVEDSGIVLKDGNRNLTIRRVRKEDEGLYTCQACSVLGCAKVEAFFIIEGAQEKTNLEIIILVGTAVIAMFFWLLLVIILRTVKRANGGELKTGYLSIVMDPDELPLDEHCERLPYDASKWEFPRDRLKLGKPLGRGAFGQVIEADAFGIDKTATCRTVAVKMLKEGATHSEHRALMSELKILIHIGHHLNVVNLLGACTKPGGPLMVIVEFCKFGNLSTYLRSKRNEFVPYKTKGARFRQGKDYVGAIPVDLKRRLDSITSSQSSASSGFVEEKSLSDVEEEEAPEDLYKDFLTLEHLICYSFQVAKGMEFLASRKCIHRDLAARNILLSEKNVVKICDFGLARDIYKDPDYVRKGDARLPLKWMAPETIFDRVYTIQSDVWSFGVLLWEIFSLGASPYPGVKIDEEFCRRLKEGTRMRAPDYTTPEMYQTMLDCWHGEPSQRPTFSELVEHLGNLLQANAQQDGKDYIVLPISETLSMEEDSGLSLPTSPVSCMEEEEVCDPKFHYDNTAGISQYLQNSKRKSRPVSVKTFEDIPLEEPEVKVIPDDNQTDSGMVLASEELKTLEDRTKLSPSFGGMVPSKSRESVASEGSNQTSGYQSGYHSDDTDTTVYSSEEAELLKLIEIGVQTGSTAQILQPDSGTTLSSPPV

## Cc1oc2cc(Oc3ccnc4ccsc34)ccc2c1C(=O)Nc1nncs1
FGF-R1
  inhibition at 0.1 µM: 35%
[1]; [3]
  inhibition at 0.1 µM: 75%
PDGFRβ
  pIC50: < 7.00

## Cc1oc2cc(Oc3ccnc4ccsc34)ccc2c1C(=O)Nc1nccs1
FGF-R1
  inhibition at 0.1 µM: 20%
[1]; [3]
  inhibition at 0.1 µM: 90%
PDGFRβ
  pIC50: < 7.00

## Cc1csc(NC(=O)c2c(C)oc3cc(Oc4ccnc5ccsc45)ccc23)n1
FGF-R1
  inhibition at 0.1 µM: 7%
[1]; [3]
  inhibition at 0.1 µM: 62%
PDGFRβ
  pIC50: < 7.00

## Cc1oc2cc(Oc3ccnc4ccsc34)ccc2c1C(=O)Nc1ccc2cn[nH]c2c1
FGF-R1
  inhibition at 0.1 µM: 0%
[1]; [3]
  inhibition at 0.1 µM: 87%
PDGFRβ
  pIC50: 7.24

## Cc1oc2cc(Oc3ccnc4ccsc34)ccc2c1C(=O)Nc1ccc2[nH]ncc2c1
FGF-R1
  inhibition at 0.1 µM: 0%
[1]; [3]
  inhibition at 0.1 µM: 96%
PDGFRβ
  pIC50: ~7.00

## Cc1oc2cc(Oc3ccnc4ccsc34)ccc2c1C(=O)NCCc1cccc(C(F)(F)F)c1
FGF-R1
  inhibition at 0.1 µM: 0%
[1]; [3]
  inhibition at 0.1 µM: 97%
PDGFRβ
  pIC50: < 7.00

## Cc1cc(C)c(O)c(NC(=O)c2c(C)oc3cc(Oc4ccnc5ccsc45)ccc23)c1
FGF-R1
  inhibition at 0.1 µM: 13%
[1]
  inhibition at 0.1 µM: 87%
PDGFRβ
  pIC50: ~7.00

## Cc1oc2cc(Oc3ccnc4ccsc34)ccc2c1C(=O)Nc1nnc(C2CC2)s1
FGF-R1
  inhibition at 0.1 µM: 4%
[1]; [3]
  inhibition at 0.1 µM: 100%
PDGFRβ
  pIC50: < 7.00

## Cc1oc2cc(Oc3ccnc4ccsc34)ccc2c1C(=O)Nc1cnc2ccccc2c1
FGF-R1
  inhibition at 0.1 µM: 7%
[1]; [3]
  inhibition at 0.1 µM: 85%
PDGFRβ
  pIC50: < 7.00

## Cc1oc2cc(Oc3ccnc4ccsc34)ccc2c1C(=O)Nc1ccc2ncsc2c1
FGF-R1
  inhibition at 0.1 µM: 0%
[1]; [3]
  inhibition at 0.1 µM: 96%
PDGFRβ
  pIC50: < 7.00

## Cc1oc2cc(Oc3ccnc4ccsc34)ccc2c1C(=O)Nc1cc(C(C)(C)C)[nH]n1
FGF-R1
  inhibition at 0.1 µM: 56%
[1]; [3]
  inhibition at 0.1 µM: 100%
PDGFRβ
  pIC50: < 7.00

## Cc1oc2cc(Oc3ccnc4ccsc34)ccc2c1C(=O)Nc1cc(C2CC2)nn1C
FGF-R1
  inhibition at 0.1 µM: 3%
[1]; [3]
  inhibition at 0.1 µM: 56%
PDGFRβ
  pIC50: < 7.00

## Cc1oc2cc(Oc3ccnc4ccsc34)ccc2c1C(=O)Nc1cccc(-c2cc[nH]n2)c1
FGF-R1
  inhibition at 0.1 µM: 0%
[1]; [3]
  inhibition at 0.1 µM: 94%
PDGFRβ
  pIC50: < 7.00

## COc1ccc(NC(=O)c2c(C)oc3cc(Oc4ccnc5ccsc45)ccc23)c(OC)n1
FGF-R1
  inhibition at 0.1 µM: 1%
[1]; [3]
  inhibition at 0.1 µM: 92%
PDGFRβ
  pIC50: < 7.00

## Cc1oc2cc(Oc3ccnc4ccsc34)ccc2c1C(=O)NCC(c1ccc[nH]1)C(F)(F)F (centres unmarked)
FGF-R1
  inhibition at 0.1 µM: 3%
[1]; [3]
  inhibition at 0.1 µM: 85%
PDGFRβ
  pIC50: < 7.00

## Cc1ccc(NC(=O)c2c(C)oc3cc(Oc4ccnc5ccsc45)ccc23)c(O)c1
FGF-R1
  inhibition at 0.1 µM: 0%
[1]; [3]
  inhibition at 0.1 µM: 85%
PDGFRβ
  pIC50: ~7.00

## Cc1oc2cc(Oc3ccnc4ccsc34)ccc2c1C(=O)Nc1n[nH]c2cccc(F)c12
FGF-R1
  inhibition at 0.1 µM: 0%
[1]; [3]
  inhibition at 0.1 µM: 61%
PDGFRβ
  pIC50: < 7.00

## Cc1oc2cc(Oc3ccnc4ccsc34)ccc2c1C(=O)Nc1cc(-c2ccco2)n[nH]1
FGF-R1
  inhibition at 0.1 µM: 1%
[1]; [3]
  inhibition at 0.1 µM: 101%
PDGFRβ
  pIC50: < 7.00

## CNC(=O)c1c(C)sc2cc(Oc3ccnc4cc(C(=O)N5C[C@@H](O)[C@@H](O)C5)sc34)ccc12 [Example 7, 6-(2-[meso-3,4-dihydroxypyrrolidine-1-carbonyl]thieno[3,2-b]pyridin-7-yloxy)-2-methylbenzo[b]thiophene-3-carboxylic acid methylamide]
[2]
  IC50: 1.21 nM
Huvec
  IC50: 2470 nM
KDR (VEGFR2)
  IC50: 1.95 nM
[1]
  inhibition at 0.05 µM: 95%
  pKi: 8.98

## CNC(=O)c1c(C)sc2cc(Oc3ccnc4cc(C(=O)N5CC(O)C5)sc34)ccc12 [Example 9, 6-(2-[3-Hydroxyazetidine-1-carbonyl]thieno[3,2-b]pyridin-7-yloxy)-2-methylbenzo[b]thiophene-3-carboxylic acid methylamide]
[2]
  IC50: 13 nM
Huvec
  IC50: 135 nM
[1]
  inhibition at 0.05 µM: 83%
  pKi: 8.80
PDGFRβ
  IC50: 313 nM
other
  melting point: 237 to 239 °C

## CNC(=O)c1c(C)sc2cc(Oc3ccnc4cc(-c5ccnn5C)sc34)ccc12 [Example 10, 2-Methyl-6-(2-[2-methyl-2H-pyrazol-3-yl]thieno[3,2-b]pyridin-7-yloxy)benzo[b]thiophene-3-carboxylic acid methylamide]
[2]
  IC50: 10 nM
Huvec
  IC50: 99 nM
[1]
  inhibition at 0.05 µM: 74%
  pKi: 8.64
PDGFRβ
  IC50: 451 nM
other
  melting point: 210 to 212 °C

## Cc1c(C(=O)NCC2CC2)c2ccc(Oc3ccnc4cc(-c5nc(C(C)(C)O)cs5)sc34)cc2n1C [Example 57, 6-{2-[4(1-Hydroxy-1-methyl-ethyl)-thiazol-2-yl]-thieno[3,2-b]pyridin-7-yloxy)-1,2-dimethyl-1H-indole-3-carboxylic acid cyclopropylmethyl-amide]
KDR (VEGFR2)
  IC50: 87 nM
[1]
  inhibition at 0.05 µM: 63%
  pKi: 8.01

## Cc1oc2cc(Oc3ccnc4ccsc34)ccc2c1C(=O)NCCCN1CCOCC1 [drawing 308]
FGF-R1
  inhibition at 0.1 µM: 2%
[1]; [3]
  inhibition at 0.1 µM: 103%
PDGFRβ
  pIC50: 7.28

## Cc1cc(NC(=O)c2c(C)oc3cc(Oc4ccnc5ccsc45)ccc23)n[nH]1 [drawing 331]
FGF-R1
  inhibition at 0.1 µM: 4%
[1]; [3]
  inhibition at 0.1 µM: 100%
PDGFRβ
  pIC50: 7.34

## Cc1oc2cc(Oc3ccnc4ccsc34)ccc2c1C(=O)NCCOC(C)C [drawing 361]
FGF-R1
  inhibition at 0.1 µM: 0%
[1]; [3]
  inhibition at 0.1 µM: 94%
PDGFRβ
  pIC50: 7.21

## Cc1oc2cc(Oc3ccnc4ccsc34)ccc2c1C(=O)Nc1ccc(N2CCOCC2)nc1 [drawing 369]
FGF-R1
  inhibition at 0.1 µM: 0%
[1]; [3]
  inhibition at 0.1 µM: 101%
PDGFRβ
  pIC50: 7.24
